Laboratory results taken from patent US20040038861A1, “Methods and compositions for normalizing lipid levels in mammalian tissues” (priority 2001, published 2004).

Tests used:
[1] = system: soleus muscle; test: Individual free fatty acids by gas chromatography in soleus muscle of rats fed high fat diets; set-up: species or system rat; settings: 1 hour, GC
Text: (§1) High-fatted rats. Groups of male Wistar rats (n=21/diet) were ad libitum fed high-fat diets containing standard rat chow to which 40% (w/w) of lard, corn oil or olive oil had been added, from the time of weaning (age=21 d) until sacrifice at 50 d. Triacylglycerol from lard contains predominantly saturated fatty acids; that from corn oil […], see Table 4.
(§2) Soleus muscle tissue isolation and incuhation.Immersion and incubation media was Krebs-Henseleit buffer (KHB) containing 118.5 mM NaCl, 4.75 mM KCl, 1.18 mM MgSO4.7H2O and KH2PO4, 24.8 mM NaHCO3, 2.54 mM CaCl2 and 10 mM d-glucose. The medium was gassed continuously with 95% O2/5% CO2. […] Soleus muscles of both legs were excised keeping the tissue immersed in KHB; muscles were separated into two equal parts and transferred to the incubation flasks. At the completion of incubation the muscles were snap frozen in liquid nitrogen, and then trimmed of connective tissue and all visible fat. The muscle strips were stored at −80° C. until analysis.
(§3) Lipid extraction and chromatographic separation of fatty acids. Total lipids were extracted from muscle strips by a modified version of the method of Bligh and Dyer (Gorski et al., 1988, Mol & Cell Biochem 178:113-118; 1. Bligh et al., 1959, Can J Biochem Physiol 37: 911-917). Muscles were homogenised (Soniprep 150) in 0.4 ml of deionised water. Solvent volumes used herein were varied according to the water content of the muscle (ie muscle weight) as described (Bligh & Dyer, supra). 2 vols of methanol containing 0.005% butylated hydroxy toluene (BHT) and 1 vol chloroform were added to the muscle suspension. Homogenates were vortexed at maximum speed for 2 minutes and centrifuged at 2,500 g for 4 minutes. Supernatants were recovered and pellets re-extracted with 2 vol methanol, 1 vol chloroform and 0.8 vol 0.2 N HCl. Residues were vortexed for 2 min then centrifuged at 3,500 g for 3 min. After centrifugation the combined supernatants were diluted with 2v each of milli Q water and chloroform and the phases separated by centrifugation at 3,500 g for 4 minutes. The lower chloroform phase was recovered, neutralised by dropwise addition of 0.2 N methanolic NH4OH and evaporated down in a stream of N2. The samples were stored at −80° C. until required.
(§4) Aminopropyl phase (250 mg) was packed into 16 ml teflon columns with teflon frits placed at the top and bottom of the bonded phase. Columns were placed in a Vac Elut apparatus and washed twice with 2 ml portions of hexane (Prasad et al., 1988, J Chromato 428: 221-228; Kaluzny et al., 1985, J Lipid Res 26: 135-140). The dry lipid samples were taken up in two 0.150 ml portions of chloroform and applied to the column under atmospheric pressure. After adsorption the neutral lipids were eluted with 4 ml of chloroform-2-propanol (2:1, v/v) and the free fatty acids eluted with 4 ml of 2% acetic acid in diethyl ether. The solvent containing the free fatty acids was dried under a stream of N2.
Gas-liquid chromatographic analysis. Dry free fatty acid residues were processed for derivatisation of methyl esters by the boron trifluoride-methanol method (Prasad, supra). 1 ml of boron trifluoride in methanol (BF3) was added to each sample, the sample vials were heated at 70° C. for 5 minutes, shaken vigorously, and baked for a further 10 minutes. Once the samples reached room temperature 0.5 ml milli Q water was added, the sample vials shaken, 0.1 ml heptane was added and the sample shaken again. 0.05 ml of the top heptane layer was removed for GLC analysis. A Model HP5890 Plus Series 2 (Hewlett-Packard) gas chromatograph equipped with a DB-225 column was used to separate the methyl esters of the fatty acids and a Model HP 5890 GC with a Model HP 5973 MS (Hewlett-Packard) GC/MS used to confirm the identity of individual free fatty acids. […]

[2] = system: soleus muscle; test: Triglyceride and free fatty acid content (enzymatic) in isolated soleus muscle of rats fed high fat diets; format: cell-based, rat; settings: 1 h
Text: as §1, §2, §3, §4
Determination of tissue free fatty acids and triacylglycerol concentration by enzymatic analyses. Free fatty acids were separated from total lipid, evaporated under a stream of N2 and stored at −80° C. until analysis. Samples were dissolved in 50 μl of warm ethanol (35-40° C.), and 0.625 ml of a Triton X-100 (6% w/v) solution was added once the ethanol reached room temperature. The solution was stirred for 30 min, then made up to 0.825 ml with the Triton solution. Free fatty acids were quantified using a commercial method (Boehringer Mannheim) adapted for micro analyses (Cobas Mira, Roche Diagnostics), with palmitic acid standards. Triacyl glycerol levels were quantified in the total lipid fraction (Pointe Scientific) with a glycerol standard.
Total lipid was extracted and quantitated. Results are shown in FIGS. 18A NEFA and 18B triglyceride.

[3] = system: soleus muscle; test: Lipid metabolites (free fatty acid, glycerol, triglyceride; enzymatic analysis) in isolated soleus muscle from normally fed rats; format: cell-based, rat
[4] = rats fed diet high in olive oil

Rat amylin was tested, and the “free fatty acid adrenic C22:4” value ([1]; rats fed diet high in corn oil) was 0.03 ± 0.003 nmol/g wwt, the “free fatty acid arachidic C20:0” value ([1]; rats fed diet high in corn oil) was 0.04 ± 0.002 nmol/g wwt and the “free fatty acid arachidonic C20:4” value ([1]; rats fed diet high in corn oil) was 0.04 ± 0.002 nmol/g wwt. For the same substance, the “free fatty acid cervonic C22:6” value ([1]; rats fed diet high in corn oil) was 0.03 ± 0.002 nmol/g wwt, the “free fatty acid linoleic C18:2” value ([1]; rats fed diet high in corn oil) was 0.18 ± 0.02 nmol/g wwt and the “free fatty acid linolenic C18:3” value ([1]; rats fed diet high in corn oil) was 0.16 ± 0.02 nmol/g wwt. For the same substance, the “free fatty acid margaric C17:0” value ([1]; rats fed diet high in corn oil) was 0.02 ± 0.0009 nmol/g wwt, the “free fatty acid myristic C14:0” value ([1]; rats fed diet high in corn oil) was 0.04 ± 0.006 nmol/g wwt and the “free fatty acid oleic C18:1” value ([1]; rats fed diet high in corn oil) was 0.13 ± 0.01 nmol/g wwt. For the same substance, the “free fatty acid palmitic C16:0” value ([1]; rats fed diet high in corn oil) was 0.12 ± 0.01 nmol/g wwt, the “free fatty acid palmitoleic (n-7) C16:1” value ([1]; rats fed diet high in corn oil) was 0.01 ± 0.0008 nmol/g wwt and the “free fatty acid palmitoleic (n-9) C16:1” value ([1]; rats fed diet high in corn oil) was 0.19 ± 0.008 nmol/g wwt. For the same substance, the “free fatty acid pentadecanoic C15:0” value ([1]; rats fed diet high in corn oil) was 0.05 ± 0.007 nmol/g wwt, the “free fatty acid stearic C18:0” value ([1]; rats fed diet high in corn oil) was 0.14 ± 0.008 nmol/g wwt and the “free fatty acid timnodonic C20:5” value ([1]; rats fed diet high in corn oil) was 0.05 ± 0.007 nmol/g wwt. For the same substance, the “free fatty acid vaccenic C18:1” value ([1]; rats fed diet high in corn oil) was 0.02 ± 0.002 nmol/g wwt, the “free fatty acid adrenic C22:4” value ([1]; rats fed diet high in lard) was 0.03 ± 0.005 nmol/g wwt and the “free fatty acid arachidic C20:0” value ([1]; rats fed diet high in lard) was 0.06 ± 0.007 nmol/g wwt. The “free fatty acid arachidonic C20:4” value ([1]; rats fed diet high in lard) was 0.01 ± 0.0005 nmol/g wwt, the “free fatty acid cervonic C22:6” value ([1]; rats fed diet high in lard) was 0.02 ± 0.002 nmol/g wwt and the “free fatty acid linoleic C18:2” value ([1]; rats fed diet high in lard) was 0.29 ± 0.004 nmol/g wwt. For the same substance, the “free fatty acid margaric C17:0” value ([1]; rats fed diet high in lard) was 0.08 ± 0.01 nmol/g wwt, the “free fatty acid myristic C14:0” value ([1]; rats fed diet high in lard) was 0.05 ± 0.01 nmol/g wwt and the “free fatty acid oleic C18:1” value ([1]; rats fed diet high in lard) was 0.2 ± 0.01 nmol/g wwt. The “free fatty acid palmitic C16:0” value ([1]; rats fed diet high in lard) was 0.24 ± 0.01 nmol/g wwt, the “free fatty acid palmitoleic (n-7) C16:1” value ([1]; rats fed diet high in lard) was 0.02 ± 0.0009 nmol/g wwt and the “free fatty acid palmitoleic (n-9) C16:1” value ([1]; rats fed diet high in lard) was 0.02 ± 0.003 nmol/g wwt. For the same substance, the “free fatty acid pentadecanoic C15:0” value ([1]; rats fed diet high in lard) was 0.12 ± 0.03 nmol/g wwt, the “free fatty acid stearic C18:0” value ([1]; rats fed diet high in lard) was 0.35 ± 0.04 nmol/g wwt and the “free fatty acid timnodonic C20:5” value ([1]; rats fed diet high in lard) was 0.02 ± 0.002 nmol/g wwt. The “free fatty acid vaccenic C18:1” value ([1]; rats fed diet high in lard) was 0.02 ± 0.002 nmol/g wwt, the “free fatty acid adrenic C22:4” value [1, 4] was 0.05 ± 0.008 nmol/g wwt and the “free fatty acid arachidic C20:0” value [1, 4] was 0.04 ± 0.005 nmol/g wwt. For the same substance, the “free fatty acid arachidonic C20:4” value [1, 4] was 0.03 ± 0.007 nmol/g wwt, the “free fatty acid cervonic C22:6” value [1, 4] was 0.08 ± 0.02 nmol/g wwt and the “free fatty acid linoleic C18:2” value [1, 4] was 0.02 ± 0.004 nmol/g wwt. The “free fatty acid linolenic C18:3” value [1, 4] was 0.01 ± 0.002 nmol/g wwt, the “free fatty acid margaric C17:0” value [1, 4] was 0.02 ± 0.003 nmol/g wwt and the “free fatty acid myristic C14:0” value [1, 4] was 0.01 ± 0.001 nmol/g wwt. For the same substance, the “free fatty acid oleic C18:1” value [1, 4] was 0.34 ± 0.04 nmol/g wwt, the “free fatty acid palmitic C16:0” value [1, 4] was 0.18 ± 0.01 nmol/g wwt and the “free fatty acid palmitoleic (n-7) C16:1” value [1, 4] was 0.02 ± 0.001 nmol/g wwt. For the same substance, the “free fatty acid palmitoleic (n-9) C16:1” value [1, 4] was 0.29 ± 0.03 nmol/g wwt, the “free fatty acid pentadecanoic C15:0” value [1, 4] was 0.04 ± 0.005 nmol/g wwt and the “free fatty acid stearic C18:0” value [1, 4] was 0.18 ± 0.02 nmol/g wwt. The “free fatty acid timnodonic C20:5” value [1, 4] was 0.02 ± 0.003 nmol/g wwt, the “free fatty acid vaccenic C18:1” value [1, 4] was 0.13 ± 0.02 nmol/g wwt and the “soleus muscle triglyceride content” value ([2]; diet with 40% added lard, 100 nM amylin or CGRP-1, 4.4 μM norepinephrine, control 1.14±0.16) was 0.71 ± 0.07 µmol/g. For the same substance, the “soleus muscle free fatty acid content” value ([2]; diet with 40% added lard, 100 nM amylin or CGRP-1, 4.4 μM norepinephrine, control 43±8) was 102 ± 12 nmol/g, the “soleus muscle triglyceride content” value ([2]; diet with 40% corn oil, 100 nM, control 0.89±0.06 μmol/g) was 0.49±0.07 [mol/g and the “soleus muscle free fatty acid content” value ([2]; diet with 40% corn oil, 100 nM, control 35±4) was 75 ± 9 nmol/g. The “soleus muscle triglyceride content” value ([2]; diet with 40% olive oil, 100 nM, control 0.83±0.1) was 0.44 ± 0.4 µmol/g, the “soleus muscle free fatty acid content” value ([2]; diet with 40% olive oil, 100 nM, control 15±3) was 85 ± 12 nmol/g and the “soleus muscle free fatty acid content, agonist alone” value ([3]; 100 nM, 1 h, normal-fed rats (FIG. 3A, 3B)) was 216 ± 26 nmol/g. The “triacylglycerol (triglyceride) content” value ([3]; soleus, normally fed rats, 60-min, 100 nM amylin or CGRP-1, 4.4 μM norepinephrine, control 1.17±0.15, not significant) was 1.7 ± 0.26 µmol/g, the “intramuscular free fatty acid content” value ([3]; soleus, normally fed rats, 1 h, 100 nM amylin or CGRP-1, 4.4 μM norepinephrine, 23.7 nM insulin, control 78±21) was 216 ± 22 nmol/g and the intramuscular glycerol content ([3]; soleus, normally fed rats, 1 h, 100 nM amylin or CGRP-1, 4.4 μM norepinephrine, control 0.07±0.007) was 0.03 ± 0.004 nmol/g.
